# Measurements published in patent publication US6900219B2, “ABCA-1 elevating compounds” (CV Therapeutics, Inc., priority 2002, dated 2005).
# Tested on: ABCA-1 gene
# Test: compounds tested and found to elevate cellular expression of the ABCA-1 gene (Examples 1-6; test not named)
# Assay type: cell-based
# Description: Activity testing is conducted as described in those patents and patent applications referenced above, and in the Examples below, and by methods apparent to one skilled in the art.
row,SMILES,cellular expression of the ABCA-1 gene
1,"O=C(Nc1ncc(-c2ccccc2)s1)c1ccno1 [isoxazol-5-yl-N-(5-phenyl(1,3-thiazol-2-yl))carboxamide]",elevate cellular expression of the ABCA-1 gene
2,"Cc1ccc(C(=O)NC2=NC(C(=O)O)CS2)cc1 (stereo not drawn) [2-[(4-methylphenyl)carbonylamino]-1,3-thiazoline-4-carboxylic acid]",elevate cellular expression of the ABCA-1 gene
3,CS(=O)(=O)c1ccc2nc(NC(=O)c3ccco3)sc2c1 [2-furyl-N-[6-(methylsulfonyl)benzothiazol-2-yl]carboxamide],elevate cellular expression of the ABCA-1 gene
4,"O=C(Nc1ccc2c(c1)OCCO2)NC1CCCCC1 [(2H,3H-benzo[e]1,4-dioxin-6-ylamino)-N-cyclohexylcarboxamide]",elevate cellular expression of the ABCA-1 gene
5,Cc1ccc(NC(=O)c2ccccc2N)cc1 [(2-aminophenyl)-N-(4-methylphenyl)carboxamide],elevate cellular expression of the ABCA-1 gene
6,O=C(Nc1nc2ccccc2s1)c1ccccn1 [N-benzothiazol-2-yl-2-pyridylcarboxamide],elevate cellular expression of the ABCA-1 gene
7,CC(C)CN(C(=O)Nc1cccc2ccccc12)C(C)c1nc2ccccc2c(=O)n1-c1ccc2ccccc2c1 (stereo not drawn) [N-(2-methylpropyl)(naphthylamino)-N-[(3-(2-naphthyl)-4-oxo(3-hydroquinazolin-2-yl))ethyl]carboxamide],elevate cellular expression of the ABCA-1 gene
8,"Cc1ccc2nc3c(nc2c1)-c1ccccc1C3=O [7-methylindeno[2,3-b]quinoxalin-1′-one]",elevate cellular expression of the ABCA-1 gene
9,CC(C)(C)c1cc(NC(=O)C(C)(C)S(=O)(=O)c2ccc(C(F)(F)F)cc2)no1 [N-[5-(tert-butyl)isoxazol-3-yl]-2-methyl-2-{[4-(trifluoromethyl)phenyl]sulfonyl}-propanamide],elevate cellular expression of the ABCA-1 gene
10,"O=C(Nc1ncc(-c2ccccc2)s1)C1CC1 [cyclopropyl-N-(5-phenyl(1,3-thiazol-2-yl))carboxamide]",elevate cellular expression of the ABCA-1 gene
11,"O=C(NC1=NCCS1)c1ccccc1 [phenyl-N-(1,3-thiazolin-2-yl)carboxamide]",elevate cellular expression of the ABCA-1 gene
12,Cc1ccc(C(=O)NCCc2ccccn2)cc1 [(4-methylphenyl)-N-(2-(2-pyridyl)ethyl)carboxamide],elevate cellular expression of the ABCA-1 gene
13,O=C(Nc1cccc(Cl)c1)Nc1ccccc1Cl [N-(2-chlorophenyl)[(3-chlorophenyl)amino]carboxamide],elevate cellular expression of the ABCA-1 gene
14,O=C(NCCc1ccccn1)c1sc2ccccc2c1Cl [(3-chlorobenzo[b]thiophen-2-yl)-N-(2-pyridyl)ethyl)carboxamide],elevate cellular expression of the ABCA-1 gene
15,"CC(C)(C)c1ccc(C(=O)NC2=NCCS2)cc1 [[4-(tert-butyl)phenyl]-N-(1,3-thiazolin-2-yl)carboxamide]",elevate cellular expression of the ABCA-1 gene
16,"CCOC(=O)CCN(CCc1ccccc1)C(=O)c1ccc2c(c1)OCO2 [ethyl 3-[2H-benzo[d]1,3-dioxolen-5-yl-N-(2-phenylethyl)carbonylamino]propanoate]",elevate cellular expression of the ABCA-1 gene
17,"Cc1c(C(=O)NCCc2ccccc2)cnn1-c1nc(-c2ccc(F)cc2)cs1 [{5-methyl-1-[4-(4-fluorophenyl)(1,3-thiazol-2-yl)]pyrazol-4-yl}-N-(2-phenylethyl)carboxamide]",elevate cellular expression of the ABCA-1 gene
18,"CCc1c(C(=O)NCCc2ccccc2)cnn1-c1nc(-c2ccc(C)cc2)cs1 [{5-ethyl-1-[4-(4-methylphenyl)(1,3-thiazol-2-yl)]pyrazol-4-yl}-N-(2-phenylethyl)carboxamide]",elevate cellular expression of the ABCA-1 gene
19,"O=C(Nc1ccc(Cl)c(Cl)c1)Nc1ccc2c(c1)OCCO2 [N-(2H,3H-benzo[e]1,4-dioxin-6-yl)[(3,4-dichlorophenyl)amino]carboxamide]",elevate cellular expression of the ABCA-1 gene
20,"O=C(Nc1nc2ccccc2s1)c1cc(C(F)(F)F)cc(C(F)(F)F)c1 [N-benzothiazol-2-yl[3,5-bis(trifluoromethyl)phenyl]carboxamide]",elevate cellular expression of the ABCA-1 gene

row,SMILES,cellular expression of the ABCA-1 gene
1,COc1ccc(C(=O)N(CCc2ccccc2)Cc2c3ccccc3cc3ccccc23)cc1 [N-(9-anthrylmethyl)(4-methoxyphenyl)-N-(2-phenylethyl)carboxamide],elevate cellular expression of the ABCA-1 gene
2,O=C(CNC(=O)c1ccccc1F)c1ccc(Cl)cc1 [N-[2-(4-chlorophenyl)-2-oxoethyl](2-fluorophenyl)carboxamide],elevate cellular expression of the ABCA-1 gene
3,CCc1c(C(=O)N2CCN(C(=O)c3ccc4ccccc4c3)C(C)C2)cnn1-c1nc(-c2ccc(Cl)cc2)cs1 (stereo not drawn) [{1-[4-(4-chloro-phenyl)-thiazol-2-yl]-5-ethyl-1H-pyrazol-4-yl}-[3-methyl-4-(naphthalene-2-carbonyl)-piperazin-1-yl]-methanone],elevate cellular expression of the ABCA-1 gene
4,CCOC(=O)CCN(C(=O)CCc1ccccc1)c1ccc(Br)cc1 [ethyl 3-[(4-bromophenyl)-N-(2-phenylethyl)carbonylamino]propanoate],elevate cellular expression of the ABCA-1 gene
5,O=C(Nc1nc2c(Cl)cccc2s1)c1cccs1 [N-(4-chlorobenzothiazol-2-yl)-2-thienylcarboxamide],elevate cellular expression of the ABCA-1 gene
6,CC(c1nc2ccccc2c(=O)n1-c1ccc2ccccc2c1)N(CCN(C)C)C(=O)Nc1cccc(C#N)c1 (stereo not drawn) [N-[2-(dimethylamino)ethyl][(3-cyanophenyl)amino]-N-[(3-(2-naphthyl)-4-oxo(3-hydroquinazolin-2-yl))ethyl]carboxamide],elevate cellular expression of the ABCA-1 gene
7,"CCCOc1nc(-c2ccc(Cl)cc2Cl)n(S(=O)(=O)Cc2ccccc2)n1 [5-(2,4-dichlorophenyl)-1-[benzylsulfonyl]-3-propoxy-1,2,4-triazole]",elevate cellular expression of the ABCA-1 gene
8,"CCN(CC)CCCC(C)NC(=O)c1cnn(-c2nc(-c3cccc(OC)c3)cs2)c1C (stereo not drawn) [N-[4-(diethylamino)-1-methylbutyl]{1-[4-(3-methoxyphenyl)(1,3-thiazol-2-yl)]-5-methylpyrazol-4-yl}carboxamide]",elevate cellular expression of the ABCA-1 gene
9,"CC(C)c1ccc(C(=O)NC2=NCCS2)cc1 [[4-(methylethyl)phenyl]-N-(1,3-thiazolin-2-yl)carboxamide]",elevate cellular expression of the ABCA-1 gene
10,"Cc1ccc(NC(=O)Nc2ccc(Cl)cc2)cc1C [N-(3,4-dimethylphenyl)[(4-chlorophenyl)amino]carboxamide]",elevate cellular expression of the ABCA-1 gene
11,CCc1ccc(C(=O)NCCN(C(=O)Nc2ccc(Oc3ccccc3)cc2)c2ccccc2)cc1 [(4-ethylphenyl)-N-(2-{phenyl[N-(4-phenoxyphenyl)carbamoyl]amino}ethyl) carboxamide],elevate cellular expression of the ABCA-1 gene
12,CCCN(C(=O)Nc1cccc(F)c1)C(C)c1nc2ccccc2c(=O)n1-c1ccc2ccccc2c1 (stereo not drawn) [[(3-fluorophenyl)amino]-N-[(3-(2-naphthyl)-4-oxo(3-hydroquinazolin-2-yl))ethyl]-N-propylcarboxamide],elevate cellular expression of the ABCA-1 gene
13,CCOc1ccc2nc(NC(=O)Nc3ccccc3)sc2c1 [N-(6-ethoxybenzothiazol-2-yl)(phenylamino)carboxamide],elevate cellular expression of the ABCA-1 gene
14,"O=C(NCCc1ccccc1F)c1ccc2oc(N3CCCN(C(=O)Cc4ccc(C(F)(F)F)cc4)CC3)nc2c1 [N-[2-(2-fluorophenyl)ethyl][2-(4-{2-[4-(trifluoromethyl)phenyl]acetyl}(1,4-diazaperhydroepinyl))benzoxazol-5-yl]carboxamide]",elevate cellular expression of the ABCA-1 gene
15,"COc1ccc(C(=O)Nc2nc(-c3ccccc3)cs2)cc1 [(4-methoxyphenyl)-N-(4-phenyl(1,3-thiazol-2-yl))carboxamide]",elevate cellular expression of the ABCA-1 gene
16,"O=C(NCC1CCCCC1)Nc1ccc(Cl)c(Cl)c1 [N-(3,4-dichlorophenyl)[(cyclohexylmethyl)amino]carboxamide]",elevate cellular expression of the ABCA-1 gene
17,"COc1ccc(/C=C/c2nc3ccccc3c(=O)[nH]2)cc1OC [2-[(1E)-2-(3,4-dimethoxyphenyl)vinyl]-3-hydroquinazolin-4-one]",elevate cellular expression of the ABCA-1 gene
18,O=C(Nc1cccc(Cl)c1)Nc1ccccc1F [N-(2-fluorophenyl)[(3-chlorophenyl)amino]carboxamide],elevate cellular expression of the ABCA-1 gene
19,"Cc1ccc(-c2ncc(-c3ccc(Cl)cc3)o2)cc1 [5-(4-chlorophenyl)-2-(4-methylphenyl)-1,3-oxazole]",elevate cellular expression of the ABCA-1 gene
